In patent US20240301141A1, “SILICONE POLYMER COMPOUND AND TRANSDERMAL DELIVERY SYSTEM COMPRISING SAME” (UNIVERSITY-INDUSTRY COOPERATION GROUP OF KYUNG HEE …, priority 2021, published 2024):

Tests used:
[1] = Water contact angle on coated slide glass; type: physicochemical; details: distilled water on coated slide glass
Description: Specifically, a monomer and PDDS series compounds were applied onto a slide glass from Marienfeld using a 100 μL pipette, respectively, and then the monomer and the PDDS series were uniformly coated on the slide glass while the slide glass was tilted left and right. The monomer and the PDDS series were coated for about 1 hour in a fume hood, and then 100 μL each of the monomer and PDDS series were dropped again, and coated without an empty portion of the slide glass by repeating the process two more times. Thereafter, distilled water was dropped on the surface of the coated glass slide using a contact angle meter from Kruss and the contact angles were analyzed.

mice = assay: Biocompatibility / immunotoxicity in mice (application behind the ears); details: mouse, in vivo
Description: Specifically, 25 μL each of phosphate-buffered saline (PBS) as a negative control, eugenol (Eug) inducing immunotoxicity as a positive control, and a C2 compound in the PDDS series were applied behind the ears of mice for 3 days, and after 6 days, the change in body weight, the feed intake and water intake, the weight of auricular lymph nodes, the number of lymph node cells, the stimulation index, and the concentrations of histamine and immunoglobulin E in the blood were measured.

red blood cells = assay: Hemolysis analysis of mouse red blood cells; type: cell-based; details: 37° C., 1 hour, absorption 492 nm
Description: In addition, for hemolysis analysis, a blood sample was obtained from the heart of the mouse anesthetized with isoflurane, and then centrifuged at 4° C. (3000 rpm, 3 min) with cold 1×PBS (1 mL, 3 times) to collect red blood cells. The purified red blood cells were treated with 100 μL of 8% (v/v) each of PBS and the C2 compound and further incubated at 37° C. for 1 hour. The mixture was then collected using centrifugation at 4° C.

[2] = tested on: B16F10 (mouse murine melanoma cell line) cells
Description: Specifically, B16F10 (mouse murine melanoma cell line) cells were transplanted into the left or right thigh (subcutaneously) of the mouse (6-week-old female Balb/c nude) on day 0 to induce melanoma tumor, and then after 10 days later (tumor size=about 200 mm^3), melanoma model mice were divided into 3 groups (5 mice per group), and each group was administered with 100 μL of PBS, SN-38 (3 mM), or C2+SN-38 (C2 compound encapsulated with SN-38 anticancer agent) by topical application on days 10, 12, 13, and 14 ((a) of FIG. 27). In order to determine toxicity and therapeutic effects in melanoma model mice for 16 days, changes in body weight and tumor volume were measured every 2 to 3 days. At the end of the experiment (day 15), the body of each mouse was photographed with a digital camera to determine the shape and size of the tumor, and at the end of the experiment (day 16), the tumor was extracted from the mouse. The extracted tumor tissue (harvested tumor) was photographed with a digital camera, and the size and volume thereof were measured. In addition, for hemolysis analysis, red blood cells purified from the blood sample obtained from the mouse heart were treated with 100 μL of PBS (negative control), SN-38 (3 mM), C2+SN-38, and Triton-X (0.1% (v/v); positive control) at 8% (v/v), respectively, and further incubated at 37° C. for 1 hour, and then the mixture was centrifuged at 4° C. (3000 rpm, 3 min) and the UV/vis absorption peak (492 nm) of the final obtained supernatant was measured at 25° C.

skin of mouse = assay: Skin penetration efficiency, fluorescence of oil red O in skin sections; type: in vivo
Description: Specifically, 100 μL each of oil red O-loaded C2 compound (C2; […]) and oil red O (OR; 100 μL, stock solution: 24 μM in PBS (1% ethanol)) were applied to the skin, and after 24 and 48 hours, the skin tissue was sectioned, and then the fluorescence of oil red O was tracked (excitation: 559 nm, detection: 636±20 nm) using a fluorescence microscope, and quantified and plotted using the Image-J program.
Here, (b, c) of FIG. 25 and (e, f) of FIG. 25 show the fluorescence intensity plot of Oil red O or the C2 compound (C2) loaded with Oil red O along the yellow dotted line in the images of (a) of FIG. 25 and (d) of FIG. 25, respectively.

## C[Si]1(C)CC[Si](C)(C)O1 [monomer, 2,2,5,5-tetramethyl-2,5-disila-1-oxacyclopentane]
[1]
  Contact angle: 69.0±1.2 °

## C=CCc1ccc(O)c(OC)c1 [eugenol]
mice
  feed intake and water intake: took less feed and water
  number of lymph node cells (BrdU assay): statistically significant increase
  stimulation index: statistically significant increase

## CCc1c2c(nc3ccc(O)cc13)-c1cc3c(c(=O)n1C2)COC(=O)[C@]3(O)CC [SN-38, 7-ethyl-10-hydroxycamptothecin]
Red blood cells
  hemolysis rate in red blood cells: severe hemolysis
[2]; melanoma xenograft mouse, topical on days 10, 12, 13, 14
  change in body weight: no significant change
[2]; tumor extracted day 16
  average tumor volume of extracted tumor: 1689±498.6 mm^3
  tumor growth / tumor size of extracted tumor tissue: only slightly reduced tumor growth

## Cc1ccc(C)c(N=Nc2cc(C)c(N=Nc3c(O)ccc4ccccc34)cc2C)c1 [oil red O]
Skin of mouse; 24 hours after application
  absorption of oil red O in skin tissue (fluorescence): hardly absorbed into the subcutaneous tissue
Skin of mouse; 48 hours after application
  absorption of oil red O in skin tissue (fluorescence): hardly absorbed into the subcutaneous tissue
